Results on three compounds are retold here after patent US20050042747A1, “Hivgp120-induced bob/gpr15 activation” (priority 2001, published 2005).

“Also recorded” adds a separate entry of the source.

Test [1] has as its system gp120-induced calcium signaling in HT-29 cells. The test can be described thus: Inhibition of gp120-induced calcium signaling in HT-29 cells. The note with it: pretreatment. The test is classed as cell-based, human. As for the experimental part: Calcium studies were done on HT-29 cells and Ghost (3) cells loaded with Fluo 4. The cells were placed in Locke's buffer containing 5 μg/ml Fluo 4 AM ester (Molecular Probes) for 20 to 30 minutes, then in Locke's buffer for an additional 30 minutes before testing. Various concentrations of gp120IIIB (X4 trophic), gp120CM235 (R5 trophic), gp120mN (X4 trophic), gp12093TH975 (nonsyncytium-inducing primary isolate from an asymptomatic subject, trophism undetermined but likely R5), and gp120SF2 (X4R5 trophic), ranging from 10 nM to less than 1 pM, were added in Locke's buffer.^6 The gp120 proteins were obtained from the AIDS Research Reagent Referral Program. Some HT-29 cells were given one of the following pretreatments: 50 μg/ml anti-Bob37 overnight, 1 μg/ml pertussis toxin overnight, or 4.6 μg/ml U73122 for one hour. With the HT-29 cells only, similar tests were also performed with SDF-1, MIP-1α, MIP-1β, and RANTES rather than gp120. The cells were visualized every 4 seconds in a confocal microscope, using 488 nm argon laser excitation and detection filters appropriate for fluorescein-like dyes.
Blocking antibody experiments were done with HT-29 cells (monitoring calcium flux, microtubule loss, or transepithelial resistance), with Ghost (3) Bob cells (monitoring calcium flux) and peripheral blood mononuclear cells (monitoring calcium flux and HIV infection). Specifics of these protocols and the specific results are given herein. […] Antibody concentrations of 40 to 50 micrograms/ml overnight were needed for maximal effect.
For the first two or three days after plating, gp120 induces an immediate (within 4 seconds) calcium flux in undifferentiated HT-29 cells. The cells had previously been loaded with Fluo-4 AM ester (Molecular Probes, Eugene Oreg.) 5 micrograms/ml in the presence of Pleuronic F-127 0.02% in Locke's buffer for 30 minutes, then incubated at room temperature for an additional 30 minutes. Gp120IIIB was added while the cells were on an inverted confocal microscope using a 488 nm argon laser, with detection filters suitable for fluorescein-like dyes. […]

In test [2] the test system is microtubules in HT-29 cells. In words: Microtubule staining (acetylated tubulin) in HT-29 cells. The note with it: pretreatment before gp120. Type of test: cell-based, human. As for the experimental part: To examine the microtubules, HT-29 cells were treated with 10 nM gp120CM235 or 50 pM gp120IIIB, then fixed one hour later in 4 g/100 ml paraformaldehyde PBS, then stained with mouse anti acetylated tubulin (5 μg/ml, Sigma) by a method similar to that given above. Some cells were pretreated with 50 μg/ml antiBob37 overnight, 1 μg/ml pertussis toxin overnight, or 4.6 μg/ml U73122 for one hour before the gp120 was added. Untreated cells were also stained.
Similarly treated undifferentiated HT-29 cells (except that Fluo-4 was not added) were fixed in paraformaldehyde phosphate buffered saline one hour after gp120 treatment.

Test [3] concerns HT-29-D4 cells. In words: Cytoskeletal organization and ultrastructure of HT-29-D4 cells (confocal, electron microscopy). The test is classed as cell-based, human. How it is done: HT-29-D4 cells grown on glass coverslips were fixed with 4% paraformaldehyde (w/v) in 0.1M phosphate buffer, pH 7.4, for 30 min at room temperature. The cells were then treated with 50 mM […] (15 min), rinsed with phosphate buffer containing 1% bovine serum albumin (BSA), and permeabilized with 0.2% Triton X-100 in phosphate buffer containing 5% BSA (30 min). For α-tubulin staining, coverslips were incubated in a humid atmosphere at 4° C. for 4 hr with the primary antibody (5 μg/ml) in phosphate buffer containing 1% BSA. After washing, the cells were incubated with fluoresecin-conjugated secondary antibodies for 90 min at 4° C. The coverslips were mounted in a Mowiol solution and analyzed by confocal microscopy (Leica TCS inverted laser scanning microscope) as previously reported (Delézay et al., 1997b). […]
The α-tubulin labeling was particularly intense in the medium part of the cells where it formed a complex network of microtubules surrounding the nucleus (a, b). […] Therefore, the presence of such cysts in HT-29-D4 cell monolayer was carefully analyzed by single staining with rhodamine-plalloidin. […]
Next, the ultrastructural changes induced by HIV-1 in differentiated HT-29-D4 cells was analyzed. […] The main ultrastructural change during incubation with virions or gp120 was the presence of intra- and inter-cellular lumina that could be detected in about 5% of the cells. […]

Test [4] is described as follows: GalCer-gp120 interactions at the air-water interface (surface pressure). Type of test: binding. The note with it: gp120 5 nM in aqueous subphase. How it is done:
A monomolecular film of GalCer was prepared at the air-water interface and gp120 purified from either IIIB (full squares), SEN (open circles) or 89.6 (full circles) isolates was added in the aqueous subphase at a concentration of 5 nM. The kinetics of the surface pressure increase induced by the viral glycoproteins are shown.
Galactosylceramide with an α-hydroxylated fatty acid (referred to as GalCer throughout this study) was either prepared from bovine brain (Sigma) or purified from HT-29-D4 membrane rafts (Fantini et al., 2000a). The surface pressure was measured with a microtensiometer (Kibron Inc., Finland) specially designed for studying protein-lipid interactions (Fantini et al., 2000a). The experiments were carried at 25° C. out in a laboratory equipped with a filtered air supply. A solution of GalCer was prepared extemporaneously in hexane:chloroform:methanol, 11:5:4 (v:v:v) at a concentration of 1 mg/ml. The lipid was carefully spread onto the meniscus of a pure water subphase (800 μl). The proteic ligand (GPR15/Bob peptides or HIV-1 gp120) was injected into the subphase with a 10 μl Hamilton syringe. The surface pressure was continuously measured as a function of time until reaching equilibrium corresponding to the maximal surface presure increase (Δπmax) expressed in mN/m.
In a recent study, it was shown that the interaction between GalCer and gp120 purified from HIV-1(IIIB) was very efficient, whereas gp120s from 89.6 and SEN isolates interacted very weakly (Hammache et al., 1998). The kinetics of this interaction are an important physicochemical parameter allowing the direct comparison of GalCer recognition by various gp120s. In the experiment shown in FIG. 11, gp120 purified from IIIB, SEN, or 89.6 was injected underneath a monomolecular film of GalCer at the air-water interface. The GalCer film mimics the topology of a GalCer raft as it is organized in the external leaflet of the plasma membrane. For this reason, the Langmuir film balance technique is one of the most sensitive and reliable for studying protein-glycolipid interactions (Maggio et al., 1994). […] The surface increase indicates a condensing effect of the gp120 on the lipidic film due to its interaction with GalCer molecules (Hammache et al., 1998). […] At this time however, the level of interaction indicated by the absolute increase of the surface pressure was identical to the one of gp120(IIIB). […] The GalCer-binding capacity of gp120(SEN) was reevaluated and shown to occur much more slowly, but not less efficiently, than of gp120(IIIB).

The test system of test [5] is HT-29-D4 cells. The test can be described thus: Transepithelial resistance (TEER) of differentiated HT-29-D4 cells. The test is classed as cell-based, human. The note with it: for TEER: 50 nM, serum-containing medium, mean SD of 4 experiments; for decrease of transepithelial resistance: after 16 hr.
The test system of test [6] is apical sodium/glucose cotransporter (SGLT1). The test can be described thus: Sodium-dependent glucose transport activity (ΔIsc after α-methylglucose) in HT-29-D4 cells. The test is classed as cell-based, human. The note with it: for ΔIsc after α-methylglucose treatment: 50 nM, 3 mM α-methylglucose. How it is done:
HT-29-D4 cells were cultured in two-compartment cell culture chambers on a polycarbonate filter (Transwell-clear, Catalog No. 3450, Costar) and analyzed for electrical parameters in modified custom made Ussing chambers as previously reported (Fantini et al., 1989). The chamber was maintained at 37° C. on a hot plate. Apical and basal compartments were filled with electrophysiological medium: 137 mM NaCl, 5.36 mM KCl, 0.4 mM Na2HPO4, 0.8 mM MgCl2, 1.8 mM CaCl2, 20 mM N-2-hydroxyethylpiperazine-N′-2-ethanesulfonic acid (HEPES), pH 7.4. Transepithelial potential difference was measured with Ag electrodes and continuously recorded using a voltage clamp unit (Physiologic Instrument). Bipolar current pulses (20 μA for 2 s, every 30 s) were passed through Ag electrodes to measure the transepithelial resistance (TEER), which was determined according to the Ohm's law (Delézay et al., 1997b). The sodium-dependent electrogenic glucose transport activity was measured as an increase of short-circuit current (ΔIsc) following apical incubation of HT-29-D4 cells with the nonmetabolizable analog of glucose α-methylglucose (Fantini et al., 2000a). Except when indicated, purified gp120s were incubated in the apical compartment of the cell culture chamber (total volume 1.5 ml instead of 10 ml for the basal compartment of the Ussing chamber device unit).
Differentiated HT-29-D4 cells cultured in Transwell chambers were either not treated (control) or treated with 50 nM of purified gp120 (IIIB isolate) for the time indicated in serum-containing culture medium. Transepithelial resistance (TEER) values and short-circuit current variations (ΔIsc) after incubation with 3 mM α-methylglucose (sodium-dependent glucose transport activity) were measured as described in Materials and Methods. The results are expressed as the mean SD of 4 separate experiments.

`COc1ccc2c(c1)CC[C@@H]1[C@@H]2CC[C@]2(C)[C@@H](NCCCCCCN3C(=O)C=CC3=O)CC[C@@H]12` [U73122]: the “inhibition of gp120-induced calcium signaling, in words” value in test [1] is “No significant gp120IIIB-induced calcium signaling; also recorded: inhibited”. For the same compound, the “inhibition of gp120-induced microtubule loss” value in test [2] is “inhibited and not”.
Take “gp120(IIIB): surface envelope glycoprotein purified from HIV-1(IIIB) by lectin affinity chromatography”: the “cells with cysts / lumina” value in the test on HT-29-D4 cells [3] (1 hr exposure) is “about 5%”. Besides, the α-tubulin staining result with HT-29-D4 cells [3] (1 hr of incubation) is recorded as “dramatic decrease”. Also, the “interaction with GalCer film, in words” value in test [4] is on record as “exponential increase in the surface pressure”. Besides, in test [4], the “time to equilibrium of surface pressure” value was 45 min. Also, the TEER with HT-29-D4 cells [5] (16 hr) is 300 ± 108 Q · cm^2; with HT-29-D4 cells [5] (48 hr), 320 ± 267 Q · cm^2. In addition, the “TEER enhancement (relative TEER)” value in the test with HT-29-D4 cells [5] (20 min after addition, electrophysiological medium, n=3) stood at 1.60±0.17. For the same compound, the figures for the “decrease of transepithelial resistance” value in the test with HT-29-D4 cells [5] and in the test on HT-29-D4 cells [5] (listed as gp120 (IIIB isolate)) were “greater than 80%” and 81%, respectively. Also, the “decrease of TEER” value in the test on HT-29-D4 cells [5] (after 48 hr) is listed as 74%. Moreover, in the test with HT-29-D4 cells [5] (continuous recording, electrophysiological medium), the “time at which TEER had decreased to null values” was determined as 12 h. Further, the “ΔIsc after α-methylglucose treatment” value in test [6] (16 hr) came to 0.35 ± 0.07 μA · cm^−2; in test [6] (48 hr) it was 0.29 ± 0.11 μA · cm^−2. Further, in test [6] (after 16 hr), the “reduction of SGLT1 electrogenic activity” value is 70%. The “decrease of SGLT1 activity” value in test [6] (after 48 hr) was 80%.
For pertussis toxin, the “inhibition of gp120-induced calcium signaling, in words” value in test [1] is listed as “No significant gp120IIIB-induced calcium signaling; also recorded: inhibited”. For the same compound, the “inhibition of gp120-induced microtubule loss” value in test [2] was “inhibited and not”.
